Columns and labels:
XIAP-BIR3 Protein = XIAP-BIR3 Protein (Homo sapiens (Human), UniProt P98170); assay: Fluorescence polarization affinity of compounds to XIAP-BIR3; format: binding; conditions: XIAP-BIR3 30 nM; 5 nM ARPFAQ-K(5-FAM)-NH2 probe; FP; pH 7.5; read-out: affinity to target protein in vitro, XIAP-BIR3 Protein (IC50)
Description: (§1) Biological Assay 1: affinity of compounds to cIAP1-BIR3, cIAP2-BIR3, XIAP-BIR3 • 1) Affinity of compounds listed in table to cIAP1-BIR3, Ciap2-BIR3, XIAP-BIR3 was tested referring to Nikolovska-Colesks, Z. et.Al. (Analytical Biochemistry,2004,232:261-273) to obtain IC50 value. Generally speaking, in 10-dose IC50 mode, IAP antagonists with different concentrations were diluted in series by 3-fold and fluorescence labelled ARPFAQ-K (5-FAM)-NH2 peptide was used as probe to test compounds binding to protein BIR3 domain. • 2) Test condition: cIAP1-BIR3: 20 nM; cIAP2-BIR3: 60 nM; XIAP-BIR3: 30 nM; 5 nM probe in 100 mM tripotassium phosphate, pH 7.5, 0.1 mg/mL BSA, 0.005% Triton X100 and 0.5% DMSO. • 3) Test procedure: compounds were added into protein with different concentrations by using ECHO (LabCyte), and then the mixture was preincubated for 15 min. The probe was added and the final concentration was 5 nM. After incubating for 60 min, FP was tested and mP was calculated. Experiment results were list in table 1.

[1] = system: NF-κB Luciferase Reporter Hela cells; assay: TNF-α inducing NF-κB reporter; format: cell-based; conditions: Homo sapiens, 6 h, Bright-Glo luciferase
Description: Biological Assay 2: TNF-α inducing NF-κB reporter
• 1) tested compounds were added into DMSO to give parent liquor (10 mM); • 2) reference compound Birinapant (32 μL, 10 mM) was added into DMSO (128 μL) to give a solution (2 mM); • 3) 0.5 μL reference compound Birinapant (2 mM) and tested compounds (10 mM) were taken by Echo and added into Greiner 96 well black cell culture plate respectively. The initial concentration of the reference compound and tested compound was 10 μM and 50 μM, respectively. Then, the reference compound and tested compounds were diluted at 9 points in series by 5-fold; and every plate was repeated for 3 times. • 4) the reference compound WXFL2012A001 (Birinapant) (final concentration: 10 μM) as HPE and DMSO (final concentration: 0.5%) as ZPE.
• 5) purpose of the three repeated plates: the first plate was used for testing compounds' activity;
the second plate was used for testing cytotoxicity of the compounds; the third plate was used for solution replacement of the first and second plates: mixing inducer TNF-α and medium containing 0.1% FBS, and then being added to the third plate and the resultant mixture was transferred to the first plate where supernatants had been removed.
• 1) removing medium in NF-iBLuciferase Reporter Hela cell culture flask and washing cell once with PBS (10 mL) • 2) adding 0.25% pancreatin (3 mL) to T150 cell culture flask, and placinginto cell incubator (37° C., 5%CO2) and dissociating cell for 3 min, and then medium (10 mL) was added to end dissociation and blowing cells with electric pipette until cells were dispersed into single cell. • 3) Calculating cell density with cell counter Countstar • 4) Adjusting NF-κB Luciferase Reporter Hela density with medium to 2.0×10^5 cells/mL • 5) Adding cells to two Greiner 96 well black cell culture plates containing compounds, (100 μL per well (2.0×10^4 cells/well)), one plate was used for testing compounds' activity, another was used for testing cytotoxicity of the compounds. • 6) Placing cell culture plates into cell incubator (37° C., 5%CO2) and incubatingfor 24 h Second Day TNF-α Inducing • 1) TNF-α (100 μg/mL) was diluted into 20 ng/mL with 0.1% FBS medium and transferredto the third plate with 100 μL per well • 2) Removing medium of the first 96 well black cell culture plate (compound activity testing plate) after 24 h, replacing with fresh medium containing the compound and 20 ng/mL TNF-α in the third plate • 3) Placing cell culture plate into cell incubator (37° C., 5% CO2) and incubatingfor 6 h • 4) after 6 h, compound's activity in the first plate was tested according to Bright-Glo (Promega) manual method, luciferase signal in each well was tested by Envision plate reader • 5) compound's cytotoxicity in the second plate was tested according to ATPlite 1Step (Perkin Elmer) manual method, luciferase signal in each well was tested by Envision plate reader • 6) analyzing with software to obtain EC50 of compound.

cIAP1-BIR3 Protein = cIAP1-BIR3 Protein (Homo sapiens (Human), UniProt Q13490); assay: Fluorescence polarization affinity of compounds to cIAP1-BIR3; format: binding; conditions: cIAP1-BIR3 20 nM; 5 nM ARPFAQ-K(5-FAM)-NH2 probe; FP; pH 7.5; read-out: affinity to target protein in vitro, cIAP1-BIR3 Protein (IC50)
Description: as §1

cIAP2-BIR3 Protein = cIAP2-BIR3 Protein (Homo sapiens (Human), UniProt Q13489); assay: Fluorescence polarization affinity of compounds to cIAP2-BIR3; format: binding; conditions: cIAP2-BIR3 60 nM; 5 nM ARPFAQ-K(5-FAM)-NH2 probe; FP; pH 7.5; read-out: affinity to target protein in vitro, cIAP2-BIR3 Protein (IC50)
Description: as §1

[2] = Table 3, 20 ng/mL TNF-α, values given as ranges
[3] = Table 4, 20 ng/mL TNF-α, exact values with control Birinapant

XIAP-BIR3 Protein, sequence (P98170 241-356): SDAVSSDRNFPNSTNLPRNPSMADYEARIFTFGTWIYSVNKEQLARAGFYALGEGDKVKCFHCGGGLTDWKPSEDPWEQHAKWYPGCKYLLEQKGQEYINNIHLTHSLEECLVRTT
cIAP2-BIR3 Protein, sequence (Q13489 238-349): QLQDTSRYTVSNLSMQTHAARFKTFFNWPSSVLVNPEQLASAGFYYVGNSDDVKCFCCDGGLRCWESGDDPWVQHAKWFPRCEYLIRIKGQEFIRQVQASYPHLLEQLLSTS
cIAP1-BIR3 Protein, sequence (Q13490 253-363): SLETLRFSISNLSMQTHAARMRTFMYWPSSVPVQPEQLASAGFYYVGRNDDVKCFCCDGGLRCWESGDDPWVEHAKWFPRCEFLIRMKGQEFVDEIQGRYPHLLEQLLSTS

IC50 (XIAP-BIR3 Protein)	EC50 [1, 2]	IC50 (cIAP1-BIR3 Protein)	IC50 (cIAP2-BIR3 Protein)	EC50 [1, 3]	SMILES
< 10 nM	< 10 nM	< 10 nM	< 10 nM		CC[C@H](NC(=O)[C@H](C)NC)C(=O)N1C[C@@H](F)C[C@H]1Cn1c(-c2[nH]c3cc(F)ccc3c2C[C@@H]2C[C@H](F)CN2C(=O)[C@@H](NC(=O)[C@H](C)NC)C2CCCCC2)nc2cc(F)ccc21 [Embodiment 27]
< 10 nM	< 10 nM	< 10 nM	10 to 100 nM		CC[C@H](NC(=O)[C@H](C)NC)C(=O)N1CCC[C@H]1Cc1c(-c2nc3cc(F)ccc3n2C[C@@H]2C[C@H](F)CN2C(=O)[C@@H](NC(=O)[C@H](C)NC)C(C)(C)C)[nH]c2cc(F)ccc12 [Embodiment 38]
10 to 100 nM	10 to 100 nM	< 10 nM	10 to 100 nM		CC[C@H](NC(=O)[C@H](C)NC)C(=O)N1CC(F)(F)C[C@H]1Cc1c(-c2nc3cc(F)ccc3n2C[C@@H]2CC(F)(F)CN2C(=O)[C@@H](NC(=O)[C@H](C)NC)C(C)C)[nH]c2cc(F)ccc12 [Embodiment 46]
10 to 100 nM	> 100 nM	10 to 100 nM	10 to 100 nM		CC[C@H](NC(=O)[C@H](C)NC)C(=O)N1CC(F)(F)C[C@H]1Cc1c(-c2nc3cc(F)ccc3n2C[C@@H]2CC(F)(F)CN2C(=O)[C@H](CC)NC(=O)[C@H](C)NC)[nH]c2cc(F)ccc12 [Embodiment 43]
10 to 100 nM	< 10 nM	< 10 nM	10 to 100 nM	6.05 nM	CC[C@H](NC(=O)[C@H](C)NC)C(=O)N1C[C@@H](F)C[C@H]1Cc1c(-c2nc3cc(F)ccc3n2C[C@@H]2C[C@H](F)CN2C(=O)[C@@H](NC(=O)[C@H](C)NC)C(C)C)[nH]c2cc(F)ccc12 [Embodiment 18]
10 to 100 nM	10 to 100 nM	< 10 nM	10 to 100 nM		CN[C@@H](C)C(=O)N[C@H](C(=O)N1C[C@@H](F)C[C@H]1Cc1c(-c2nc3cc(F)ccc3n2C[C@@H]2C[C@H](F)CN2C(=O)[C@@H](NC(=O)[C@H](C)NC)C2CC2)[nH]c2cc(F)ccc12)C1CC1 [Embodiment 14]
10 to 100 nM	< 10 nM	< 10 nM	10 to 100 nM	7.11 nM	CN[C@@H](C)C(=O)N[C@H](C(=O)N1CCC[C@H]1Cc1c(-c2nc3cc(F)ccc3n2C[C@@H]2CCCN2C(=O)[C@@H](NC(=O)[C@H](C)NC)C(C)C)[nH]c2cc(F)ccc12)C(C)C [Embodiment 1]
10 to 100 nM	10 to 100 nM	< 10 nM	10 to 100 nM		CN[C@@H](C)C(=O)N[C@H](C(=O)N1C[C@@H](F)C[C@H]1Cc1c(-c2nc3cc(F)ccc3n2C[C@@H]2C[C@H](F)CN2C(=O)[C@@H](NC(=O)[C@H](C)NC)C2CC2)[nH]c2cc(F)ccc12)C(C)C [Embodiment 21]
< 10 nM	10 to 100 nM	< 10 nM	10 to 100 nM		CC[C@H](NC(=O)[C@H](C)NC)C(=O)N1C[C@@H](F)C[C@H]1Cc1c(-c2nc3cc(F)ccc3n2C[C@@H]2CCCN2C(=O)[C@@H](NC(=O)[C@H](C)NC)C(C)C)[nH]c2cc(F)ccc12 [Embodiment 39]
10 to 100 nM	< 10 nM	< 10 nM	10 to 100 nM		CN[C@@H](C)C(=O)N[C@H](C(=O)N1C[C@@H](F)C[C@H]1Cc1c(-c2nc3cc(F)ccc3n2C[C@@H]2C[C@H](F)CN2C(=O)[C@@H](NC(=O)[C@H](C)NC)C2CCCCC2)[nH]c2cc(F)ccc12)C1CC1 [Embodiment 30]
10 to 100 nM	< 10 nM	< 10 nM	10 to 100 nM		CCC[C@H](NC(=O)[C@H](C)NC)C(=O)N1C[C@@H](F)C[C@H]1Cc1c(-c2nc3cc(F)ccc3n2C[C@@H]2C[C@H](F)CN2C(=O)[C@@H](NC(=O)[C@H](C)NC)C(C)C)[nH]c2cc(F)ccc12 [Embodiment 32]
< 10 nM	< 10 nM	< 10 nM	10 to 100 nM		CN[C@@H](C)C(=O)N[C@H](C(=O)N1C[C@@H](F)C[C@H]1Cc1c(-c2nc3cc(F)ccc3n2C[C@@H]2C[C@H](F)CN2C(=O)[C@@H](NC(=O)[C@H](C)NC)C2CCC2)[nH]c2cc(F)ccc12)C1CCC1 [Embodiment 17]
